This note sets out measurements from ChEMBL document CHEMBL1143207, “New 7,8-benzoflavanones as potent aromatase inhibitors: synthesis and biological evaluation” (Bioorg Med Chem, 2008).

The assay has as its target T1, Aromatase (Homo sapiens, UniProt P11511).
T1 sequence (P11511 whole entry): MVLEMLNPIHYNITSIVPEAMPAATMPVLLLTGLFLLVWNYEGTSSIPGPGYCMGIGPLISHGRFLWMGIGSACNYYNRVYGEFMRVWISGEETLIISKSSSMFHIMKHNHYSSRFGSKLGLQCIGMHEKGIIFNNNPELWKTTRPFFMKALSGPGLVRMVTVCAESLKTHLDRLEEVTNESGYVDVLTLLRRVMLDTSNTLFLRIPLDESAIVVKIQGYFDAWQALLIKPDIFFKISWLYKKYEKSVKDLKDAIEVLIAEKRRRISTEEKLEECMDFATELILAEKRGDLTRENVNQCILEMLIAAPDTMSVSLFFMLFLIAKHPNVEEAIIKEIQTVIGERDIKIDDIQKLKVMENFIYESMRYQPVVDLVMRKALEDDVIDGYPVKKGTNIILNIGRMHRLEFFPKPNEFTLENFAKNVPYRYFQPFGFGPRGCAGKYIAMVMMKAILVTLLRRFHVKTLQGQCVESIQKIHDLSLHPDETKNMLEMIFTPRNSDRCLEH
It is filed as microsomes, Placenta, Microsomes.
Description: Inhibition of human aromatase in placental microsomes
The term IC50 denotes the midpoint of a concentration-inhibition curve. A higher IC50 goes with weaker potency in that assay. For `O=C1C[C@@H](c2ccc(O)cc2)Oc2cc(O)ccc21` [LIQUIRTIGENIN], the IC50 is 2100 nM.
The same measure for `N#Cc1ccc(C2CC(=O)c3ccc4ccccc4c3O2)cc1` (configuration not stated): 1540 nM; for `O=C1CC(c2cccc(O)c2)Oc2c1ccc1ccccc21` (configuration not stated): 610 nM; for `O=C1CC(c2ccccc2)Oc2c1ccc1ccccc21` (configuration not stated): 4300 nM.
Take `O=C1CC(c2ccc(O)cc2)Oc2c1ccc1ccccc21` (configuration not stated): the 50% inhibitory concentration (IC50) came out at 630 nM.
The same measure for `O=C1CC(c2cccc(O)c2)Oc2cc(O)ccc21` (configuration not stated): 3400 nM; for `N#Cc1cccc(C2CC(=O)c3ccc4ccccc4c3O2)c1` (configuration not stated): 1370 nM.
